Assay results from the kinase profiling compilation of Christmann-Franck et al. (2016).
Values belong to the compound of their own block, whether it stands above or below them.

Experiments:
Assay in all cases: radiometric filter-binding kinase assay
ABL1 (human) = ABL1 (human) (UniProt P00519)
CDK9 CCNT1 (human) = CDK9 CCNT1 (human) (UniProt P50750+O60563)
CSNK1G2 (human) = CSNK1G2 (human) (UniProt P78368)
DDR2 (human) = DDR2 (human) (UniProt Q16832)
EIF2AK3 (human) = EIF2AK3 (human) (UniProt Q9NZJ5)
IRAK1 (human) = IRAK1 (human) (UniProt P51617)
MAP4K3 (human) = MAP4K3 (human) (UniProt Q8IVH8)
MAP4K5 (human) = MAP4K5 (human) (UniProt Q9Y4K4)
MYLK (human) = MYLK (human) (UniProt Q15746)
[1] = test system: OXSR1 (human), O95747 [T185E]; conditions: compound 1.0 µM
PDGFRA (human) = PDGFRA (human) (UniProt P16234)
[2] = molecular target: PRKAA1 PRKAB2 PRKAG1 (human) (UniProt O43741+Q13131+P54619)
PRKCG (human) = PRKCG (human) (UniProt P05129)
PTK6 (human) = PTK6 (human) (UniProt Q13882)
SIK2 (human) = SIK2 (human) (UniProt Q9H0K1)
SIK3 (human) = SIK3 (human) (UniProt Q9Y2K2)
STK16 (human) = STK16 (human) (UniProt O75716)
STK24 (human) = STK24 (human) (UniProt Q9Y6E0)
STK33 (human) = STK33 (human) (UniProt Q9BYT3)
TEK (human) = TEK (human) (UniProt Q02763)
TESK1 (human) = TESK1 (human) (UniProt Q15569)
TLK1 (human) = TLK1 (human) (UniProt Q9UKI8)
TSSK1B (human) = TSSK1B (human) (UniProt Q9BXA7)
TTBK1 (human) = TTBK1 (human) (UniProt Q5TCY1)
TTBK2 (human) = TTBK2 (human) (UniProt Q6IQ55)
ULK1 (human) = ULK1 (human) (UniProt O75385)
ULK2 (human) = ULK2 (human) (UniProt Q8IYT8)
WNK1 (human) = WNK1 (human) (UniProt Q9H4A3)
ZAP70 (human) = ZAP70 (human) (UniProt P43403)
MAPK7 (human) = MAPK7 (human) (UniProt Q13164)
[3] = test system: TGFBR1 (human), P36897 [T204D]

Chain of SIK3 (human) (Q9Y2K2 whole entry, looked up): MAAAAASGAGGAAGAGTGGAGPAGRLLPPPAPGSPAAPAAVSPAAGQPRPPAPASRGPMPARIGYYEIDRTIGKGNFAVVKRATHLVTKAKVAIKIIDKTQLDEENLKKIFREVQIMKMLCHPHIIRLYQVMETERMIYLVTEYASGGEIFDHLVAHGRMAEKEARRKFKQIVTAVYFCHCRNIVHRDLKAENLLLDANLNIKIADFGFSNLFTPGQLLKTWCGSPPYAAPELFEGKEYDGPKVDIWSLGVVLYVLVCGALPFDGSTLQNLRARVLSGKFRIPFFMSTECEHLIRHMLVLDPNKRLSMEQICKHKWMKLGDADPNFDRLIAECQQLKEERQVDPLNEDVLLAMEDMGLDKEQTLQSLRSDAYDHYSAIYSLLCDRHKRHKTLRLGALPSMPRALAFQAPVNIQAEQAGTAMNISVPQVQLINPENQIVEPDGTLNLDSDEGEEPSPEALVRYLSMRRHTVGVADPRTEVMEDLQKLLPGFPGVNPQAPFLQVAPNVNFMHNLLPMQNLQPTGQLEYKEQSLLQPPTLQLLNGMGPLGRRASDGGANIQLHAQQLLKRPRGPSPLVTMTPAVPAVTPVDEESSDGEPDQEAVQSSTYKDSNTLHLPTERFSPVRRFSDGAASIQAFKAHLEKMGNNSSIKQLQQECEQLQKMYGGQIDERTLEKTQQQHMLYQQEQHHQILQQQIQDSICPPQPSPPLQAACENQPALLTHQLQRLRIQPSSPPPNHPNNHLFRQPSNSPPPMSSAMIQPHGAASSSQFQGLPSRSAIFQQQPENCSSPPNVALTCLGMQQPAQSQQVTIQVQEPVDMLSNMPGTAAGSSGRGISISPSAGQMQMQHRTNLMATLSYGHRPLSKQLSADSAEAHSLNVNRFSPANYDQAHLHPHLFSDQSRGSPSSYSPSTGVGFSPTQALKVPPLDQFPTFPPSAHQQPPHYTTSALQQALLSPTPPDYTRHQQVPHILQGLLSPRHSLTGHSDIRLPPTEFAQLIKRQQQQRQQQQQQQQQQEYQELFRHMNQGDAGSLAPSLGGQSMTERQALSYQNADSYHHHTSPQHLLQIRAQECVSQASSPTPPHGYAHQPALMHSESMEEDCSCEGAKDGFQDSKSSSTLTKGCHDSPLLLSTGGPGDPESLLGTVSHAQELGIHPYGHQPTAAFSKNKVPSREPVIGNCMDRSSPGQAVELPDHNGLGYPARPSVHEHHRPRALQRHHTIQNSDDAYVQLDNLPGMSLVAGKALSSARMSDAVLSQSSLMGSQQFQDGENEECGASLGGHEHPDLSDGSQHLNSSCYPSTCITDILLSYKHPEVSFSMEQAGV
Chain of EIF2AK3 (human) (Q9NZJ5 whole entry, looked up): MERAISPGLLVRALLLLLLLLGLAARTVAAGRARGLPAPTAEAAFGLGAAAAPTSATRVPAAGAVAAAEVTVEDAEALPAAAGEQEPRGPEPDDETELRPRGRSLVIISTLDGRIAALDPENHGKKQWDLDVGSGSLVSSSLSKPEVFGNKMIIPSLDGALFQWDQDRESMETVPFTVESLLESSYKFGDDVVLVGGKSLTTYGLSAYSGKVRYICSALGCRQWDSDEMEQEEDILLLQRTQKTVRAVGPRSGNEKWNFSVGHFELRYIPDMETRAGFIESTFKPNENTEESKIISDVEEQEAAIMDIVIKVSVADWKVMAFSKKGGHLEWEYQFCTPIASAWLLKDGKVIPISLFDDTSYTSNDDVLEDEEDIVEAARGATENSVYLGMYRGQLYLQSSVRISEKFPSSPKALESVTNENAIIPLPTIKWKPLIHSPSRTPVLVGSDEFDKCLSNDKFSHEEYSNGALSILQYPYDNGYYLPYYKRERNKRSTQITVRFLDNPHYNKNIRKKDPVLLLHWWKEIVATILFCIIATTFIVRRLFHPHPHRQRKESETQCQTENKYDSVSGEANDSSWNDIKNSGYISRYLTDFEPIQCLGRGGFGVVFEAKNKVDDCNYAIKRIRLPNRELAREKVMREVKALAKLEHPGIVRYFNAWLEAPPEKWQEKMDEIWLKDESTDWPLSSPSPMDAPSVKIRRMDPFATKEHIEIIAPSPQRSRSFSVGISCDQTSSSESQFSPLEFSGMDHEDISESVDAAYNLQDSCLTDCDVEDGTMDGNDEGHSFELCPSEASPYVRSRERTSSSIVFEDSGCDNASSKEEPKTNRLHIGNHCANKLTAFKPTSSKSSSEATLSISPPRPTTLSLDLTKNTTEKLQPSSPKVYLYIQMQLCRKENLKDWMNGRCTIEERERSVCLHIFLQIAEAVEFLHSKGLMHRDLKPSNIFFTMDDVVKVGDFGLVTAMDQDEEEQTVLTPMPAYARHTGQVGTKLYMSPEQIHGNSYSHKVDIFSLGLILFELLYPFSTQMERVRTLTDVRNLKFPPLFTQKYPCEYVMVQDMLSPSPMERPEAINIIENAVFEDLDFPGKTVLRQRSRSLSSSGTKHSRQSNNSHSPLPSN
Chain of MAP4K3 (human) (Q8IVH8 whole entry, looked up): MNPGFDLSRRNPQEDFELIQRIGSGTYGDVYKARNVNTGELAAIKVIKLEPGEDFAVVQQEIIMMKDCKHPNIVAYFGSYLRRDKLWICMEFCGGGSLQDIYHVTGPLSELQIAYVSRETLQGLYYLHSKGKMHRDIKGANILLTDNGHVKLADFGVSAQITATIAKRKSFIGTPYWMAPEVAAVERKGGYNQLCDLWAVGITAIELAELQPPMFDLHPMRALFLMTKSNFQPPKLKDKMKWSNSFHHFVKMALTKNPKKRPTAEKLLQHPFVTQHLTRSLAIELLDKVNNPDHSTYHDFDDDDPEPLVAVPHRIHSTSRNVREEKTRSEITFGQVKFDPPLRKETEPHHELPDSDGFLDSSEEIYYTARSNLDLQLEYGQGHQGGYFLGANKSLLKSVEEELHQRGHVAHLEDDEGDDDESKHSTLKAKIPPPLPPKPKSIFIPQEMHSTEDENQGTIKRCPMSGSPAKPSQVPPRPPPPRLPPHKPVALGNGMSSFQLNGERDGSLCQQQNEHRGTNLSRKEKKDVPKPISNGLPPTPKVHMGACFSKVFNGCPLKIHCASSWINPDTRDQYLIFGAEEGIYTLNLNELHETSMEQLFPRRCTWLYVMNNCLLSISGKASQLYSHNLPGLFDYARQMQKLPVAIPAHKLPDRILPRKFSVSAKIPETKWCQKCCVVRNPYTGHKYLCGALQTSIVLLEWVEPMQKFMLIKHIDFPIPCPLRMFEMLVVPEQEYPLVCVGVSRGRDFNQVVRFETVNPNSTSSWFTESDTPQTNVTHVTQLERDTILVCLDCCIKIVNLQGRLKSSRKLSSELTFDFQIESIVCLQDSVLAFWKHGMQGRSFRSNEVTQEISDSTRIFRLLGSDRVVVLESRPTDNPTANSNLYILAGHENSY
Chain of DDR2 (human) (Q16832 whole entry, looked up): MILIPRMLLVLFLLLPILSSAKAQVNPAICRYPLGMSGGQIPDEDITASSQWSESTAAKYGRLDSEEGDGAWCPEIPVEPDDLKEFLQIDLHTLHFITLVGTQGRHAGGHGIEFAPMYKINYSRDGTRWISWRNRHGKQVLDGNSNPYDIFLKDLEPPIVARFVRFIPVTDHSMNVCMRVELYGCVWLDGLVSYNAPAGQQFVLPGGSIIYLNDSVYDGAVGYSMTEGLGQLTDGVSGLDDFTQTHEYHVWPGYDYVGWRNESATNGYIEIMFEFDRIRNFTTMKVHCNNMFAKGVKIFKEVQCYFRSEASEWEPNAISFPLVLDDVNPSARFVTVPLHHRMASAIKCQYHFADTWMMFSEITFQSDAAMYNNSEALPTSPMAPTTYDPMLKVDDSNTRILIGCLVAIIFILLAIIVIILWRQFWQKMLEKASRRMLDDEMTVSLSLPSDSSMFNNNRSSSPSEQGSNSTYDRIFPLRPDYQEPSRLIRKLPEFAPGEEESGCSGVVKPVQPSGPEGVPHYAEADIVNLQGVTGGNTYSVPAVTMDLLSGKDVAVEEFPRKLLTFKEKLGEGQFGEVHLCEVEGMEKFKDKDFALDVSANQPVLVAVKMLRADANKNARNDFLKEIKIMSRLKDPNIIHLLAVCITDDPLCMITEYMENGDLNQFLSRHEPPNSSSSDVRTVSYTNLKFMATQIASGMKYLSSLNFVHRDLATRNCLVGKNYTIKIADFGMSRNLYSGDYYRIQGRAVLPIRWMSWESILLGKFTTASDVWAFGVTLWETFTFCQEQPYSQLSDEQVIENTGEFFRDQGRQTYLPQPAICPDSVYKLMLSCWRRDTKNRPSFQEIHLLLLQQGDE
Chain of PTK6 (human) (Q13882 whole entry, looked up): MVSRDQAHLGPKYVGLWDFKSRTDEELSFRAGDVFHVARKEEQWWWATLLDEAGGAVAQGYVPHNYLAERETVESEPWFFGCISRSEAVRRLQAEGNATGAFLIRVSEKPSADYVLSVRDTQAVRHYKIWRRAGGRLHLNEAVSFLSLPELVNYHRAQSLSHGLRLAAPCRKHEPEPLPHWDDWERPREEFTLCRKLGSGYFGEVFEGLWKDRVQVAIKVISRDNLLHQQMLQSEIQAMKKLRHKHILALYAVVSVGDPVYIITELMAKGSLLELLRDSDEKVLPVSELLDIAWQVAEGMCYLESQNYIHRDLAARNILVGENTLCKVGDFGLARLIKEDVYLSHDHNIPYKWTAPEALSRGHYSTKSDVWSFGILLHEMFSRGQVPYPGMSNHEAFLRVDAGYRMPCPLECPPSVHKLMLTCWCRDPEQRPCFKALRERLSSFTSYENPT
Chain of STK24 (human) (Q9Y6E0 whole entry, looked up): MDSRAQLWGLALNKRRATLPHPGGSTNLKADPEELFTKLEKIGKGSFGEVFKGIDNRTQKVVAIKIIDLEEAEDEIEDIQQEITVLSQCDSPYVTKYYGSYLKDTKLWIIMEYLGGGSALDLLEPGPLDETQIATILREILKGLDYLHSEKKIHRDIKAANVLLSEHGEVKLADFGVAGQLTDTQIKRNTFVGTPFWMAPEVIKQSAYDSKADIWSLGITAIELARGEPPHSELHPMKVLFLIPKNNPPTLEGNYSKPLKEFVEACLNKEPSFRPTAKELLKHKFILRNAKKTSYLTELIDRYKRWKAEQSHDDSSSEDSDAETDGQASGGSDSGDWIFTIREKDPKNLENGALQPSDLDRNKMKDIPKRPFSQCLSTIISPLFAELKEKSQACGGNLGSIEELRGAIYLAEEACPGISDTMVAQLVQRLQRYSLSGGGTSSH

residual activity (ABL1 (human); compound 1.0 µM): 119% | residual activity (ABL1 (human); compound 5.0 µM): 110% | residual activity (CDK9 CCNT1 (human); compound 1.0 µM): 119% | residual activity (CDK9 CCNT1 (human); compound 5.0 µM): 101% | residual activity (CSNK1G2 (human); compound 1.0 µM): 124% | residual activity (CSNK1G2 (human); compound 5.0 µM): 101% | residual activity (DDR2 (human); compound 1.0 µM): 105% | residual activity (DDR2 (human); compound 5.0 µM): 107% | residual activity (EIF2AK3 (human); compound 1.0 µM): 111% | residual activity (EIF2AK3 (human); compound 5.0 µM): 123% | residual activity (IRAK1 (human); compound 1.0 µM): 96% | residual activity (IRAK1 (human); compound 5.0 µM): 102% | residual activity (MAP4K3 (human); compound 1.0 µM): 95% | residual activity (MAP4K3 (human); compound 5.0 µM): 88% | residual activity (MAP4K5 (human); compound 1.0 µM): 116% | residual activity (MAP4K5 (human); compound 5.0 µM): 97% | residual activity (MYLK (human); compound 1.0 µM): 123% | residual activity (MYLK (human); compound 5.0 µM): 113% | residual activity [1]: 115% | residual activity (PDGFRA (human); compound 5.0 µM): 109% | residual activity ([2]; compound 1.0 µM): 111% | residual activity ([2]; compound 5.0 µM): 107% | residual activity (PRKCG (human); compound 1.0 µM): 120% | residual activity (PRKCG (human); compound 5.0 µM): 121% | residual activity (PTK6 (human); compound 1.0 µM): 107% | residual activity (PTK6 (human); compound 5.0 µM): 120% | residual activity (SIK2 (human); compound 1.0 µM): 108% | residual activity (SIK2 (human); compound 5.0 µM): 93% | residual activity (SIK3 (human); compound 1.0 µM): 110% | residual activity (SIK3 (human); compound 5.0 µM): 104% | residual activity (STK16 (human); compound 1.0 µM): 121% | residual activity (STK16 (human); compound 5.0 µM): 106% | residual activity (STK24 (human); compound 1.0 µM): 101% | residual activity (STK24 (human); compound 5.0 µM): 88% | residual activity (STK33 (human); compound 1.0 µM): 117% | residual activity (STK33 (human); compound 5.0 µM): 102% | residual activity (TEK (human); compound 1.0 µM): 99% | residual activity (TEK (human); compound 5.0 µM): 80% | residual activity (TESK1 (human); compound 1.0 µM): 106% | residual activity (TESK1 (human); compound 5.0 µM): 112% | residual activity (TLK1 (human); compound 1.0 µM): 108% | residual activity (TLK1 (human); compound 5.0 µM): 115% | residual activity (TSSK1B (human); compound 1.0 µM): 103% | residual activity (TSSK1B (human); compound 5.0 µM): 93% | residual activity (TTBK1 (human); compound 1.0 µM): 110% | residual activity (TTBK1 (human); compound 5.0 µM): 103% | residual activity (TTBK2 (human); compound 1.0 µM): 125% | residual activity (TTBK2 (human); compound 5.0 µM): 100% | residual activity (ULK1 (human); compound 1.0 µM): 104% | residual activity (ULK1 (human); compound 5.0 µM): 110% | residual activity (ULK2 (human); compound 1.0 µM): 96% | residual activity (ULK2 (human); compound 5.0 µM): 121% | residual activity (WNK1 (human); compound 1.0 µM): 112% | residual activity (WNK1 (human); compound 5.0 µM): 100% | residual activity (ZAP70 (human); compound 1.0 µM): 99% | residual activity (ZAP70 (human); compound 5.0 µM): 104%
Structure (SMILES): C=C1C(=O)OC2C1CC/C(C)=C/CCC1(C)OC21 (stereo unspecified)

residual activity (ABL1 (human); compound 1.0 µM): 95% | residual activity (ABL1 (human); compound 10.0 µM): 103% | residual activity (CDK9 CCNT1 (human); compound 1.0 µM): 82% | residual activity (CDK9 CCNT1 (human); compound 10.0 µM): 83% | residual activity (CSNK1G2 (human); compound 1.0 µM): 93% | residual activity (CSNK1G2 (human); compound 10.0 µM): 90% | residual activity (DDR2 (human); compound 1.0 µM): 92% | residual activity (DDR2 (human); compound 10.0 µM): 101% | residual activity (EIF2AK3 (human); compound 1.0 µM): 102% | residual activity (IRAK1 (human); compound 10.0 µM): 80% | residual activity (MAP4K3 (human); compound 1.0 µM): 84% | residual activity (MAP4K3 (human); compound 10.0 µM): 73% | residual activity (MAP4K5 (human); compound 1.0 µM): 80% | residual activity (MAP4K5 (human); compound 10.0 µM): 73% | residual activity (MAPK7 (human); compound 1.0 µM): 91% | residual activity (MAPK7 (human); compound 10.0 µM): 89% | residual activity (MYLK (human); compound 1.0 µM): 109% | residual activity [1]: 95% | residual activity (PDGFRA (human); compound 1.0 µM): 82% | residual activity (PDGFRA (human); compound 10.0 µM): 98% | residual activity ([2]; compound 1.0 µM): 88% | residual activity ([2]; compound 10.0 µM): 94% | residual activity (PRKCG (human); compound 1.0 µM): 95% | residual activity (PRKCG (human); compound 10.0 µM): 97% | residual activity (PTK6 (human); compound 1.0 µM): 91% | residual activity (PTK6 (human); compound 10.0 µM): 91% | residual activity (SIK2 (human); compound 1.0 µM): 95% | residual activity (SIK2 (human); compound 10.0 µM): 79% | residual activity (SIK3 (human); compound 1.0 µM): 91% | residual activity (SIK3 (human); compound 10.0 µM): 101% | residual activity (STK24 (human); compound 1.0 µM): 84% | residual activity (STK24 (human); compound 10.0 µM): 70% | residual activity (STK33 (human); compound 1.0 µM): 91% | residual activity (STK33 (human); compound 10.0 µM): 92% | residual activity (TEK (human); compound 1.0 µM): 103% | residual activity (TESK1 (human); compound 1.0 µM): 84% | residual activity (TESK1 (human); compound 10.0 µM): 103% | residual activity ([3]; compound 1.0 µM): 98% | residual activity ([3]; compound 10.0 µM): 98% | residual activity (TLK1 (human); compound 1.0 µM): 89% | residual activity (TLK1 (human); compound 10.0 µM): 104% | residual activity (TSSK1B (human); compound 10.0 µM): 83% | residual activity (TTBK1 (human); compound 1.0 µM): 88% | residual activity (TTBK2 (human); compound 1.0 µM): 96% | residual activity (TTBK2 (human); compound 10.0 µM): 154% | residual activity (ULK1 (human); compound 1.0 µM): 86% | residual activity (ULK1 (human); compound 10.0 µM): 97% | residual activity (WNK1 (human); compound 10.0 µM): 105% | residual activity (ZAP70 (human); compound 1.0 µM): 84% | residual activity (ZAP70 (human); compound 10.0 µM): 83%
Structure (SMILES): NCC(=O)Nc1ccc(-n2nc(C(F)(F)F)cc2-c2ccc3c(ccc4ccccc43)c2)cc1
